# “And” between values parts separate entries of the source, which are not always exact repeats. Equal entries are not always repeated.
# Key:
# Format in all cases: in vivo, Oryza sativa
# [1] = test system: O. sativa M2 Volano check plants; experiment: Previous kill curve greenhouse tests on rice check plants; details: with 1.0% DASH
# Description: M3 seed, which were harvested from tilled and selected individuals containing mutations in the CESA1 and CESA3 genes, were grown in the greenhouse under natural light conditions supplemented with 400 W sodium halide lamps under a 16 hr day length. Day/night temperatures were 26 and 20° C., respectively. The number of M3 plants from each line varied between 2 and 16, depending on seed availability and germination. […] Plants were assessed for crop injury, using a scale from 0% injury to 100% injury, at 11 and 21 days after treatment (DAT) for M3 plants applied with 6-(1-fluorocyclopentyl)-N2-(2,3,5,6-tetrafluorophenyl)-1,3,5-triazine-2,4-diamine and 36 DAT for M4 plants applied with 6-cyclopentyl-N4-(2,3,4,5,6-pentafluorophenyl)-1,3,5-triazine-2,4-diamine. Plants without any symptoms were recorded as “0%” injury. Increasing levels of reduced leaf mass and reduced stalk stiffness, with respect to the untreated control plants, were recorded in the range of “1 to 49%” injury. Increasing levels of leaf abnormalities and leaf necrosis, along with increased levels of lodging, relative to the untreated control plants, were recorded in the range of “50 to 85%” injury. Dead or dying plants with necrosis of the apex and severe lodging were recorded between “86-100%”. […]
# [2] = test system: wild type rice materials (O. sativa M2 Volano); experiment: Greenhouse foliar application, crop injury on wild type rice materials (Tables E10-1, E10-2); details: wild type rice (OsCESA WT)
# Description: (§1) Oryza sativa M2 Volano is a cellulose biosynthesis inhibitor susceptible rice risotto population that was subjected to sodium azide seed mutagenesis but was not tilled nor selected for CESA mutations. O. sativa Volano-M3-CESA1 and CESA3 mutants were selected from a subpopulation of O. sativa M2 Volano by sequencing CESA gene sequences in M2 plants and maintaining (producing seed through selfing) those individuals containing key mutations in these genes. The tolerance of the M3 CESA1 and CESA3 mutants was assessed using 6-(1-fluorocyclopentyl)-N2-(2,3,5,6-tetrafluorophenyl)-1,3,5-triazine-2,4-diamine, together with 1.0% DASH® EC adjuvant (BASF). The tolerance of M4 CESA1 and CESA3 mutants was assessed using 6-cyclopentyl-N4-(2,3,4,5,6-pentafluorophenyl)-1,3,5-triazine-2,4-diamine, together with 1.0% DASH® EC adjuvant (BASF).
# (§2) M3 seed, which were harvested from tilled and selected individuals containing mutations in the CESA1 and CESA3 genes, were grown in the greenhouse under natural light conditions supplemented with 400 W sodium halide lamps under a 16 hr day length. Day/night temperatures were 26 and 20° C., respectively. The number of M3 plants from each line varied between 2 and 16, depending on seed availability and germination. A non-selective CBI, azine 6-(1-fluorocyclopentyl)-N2-(2,3,5,6-tetrafluorophenyl)-1,3,5-triazine-2,4-diamine, formulated with 1.0% DASH in a water volume of 375 L/ha was applied early post-emergent (one to two leaf stage) at a rate of 250 g ai/ha to M3 CESA1 and CESA3 mutant rice plants growing in soil in the greenhouse. Only plants originating from lines having more than four seeds were subjected to herbicide treatment. CESA mutant lines with four or fewer seeds were selfed for an additional generation and then tested at the M4 generation with 6-cyclopentyl-N4-(2,3,4,5,6-pentafluorophenyl)-1,3,5-triazine-2,4-diamine. M4 plants were grown under similar conditions as M3 plants and treated with 250 g ai/ha or 500 g ai/ha of 6-cyclopentyl-N4-(2,3,4,5,6-pentafluorophenyl)-1,3,5-triazine-2,4-diamine. Previous kill curve greenhouse tests had identified that a rate of 250 g ai/ha of 6-(1-fluorocyclopentyl)-N2-(2,3,5,6-tetrafluorophenyl)-1,3,5-triazine-2,4-diamine and a rate of 250 g ai/ha 6-cyclopentyl-N4-(2,3,4,5,6-pentafluorophenyl)-1,3,5-triazine-2,4-diamine, both with 1.0% DASH, were sufficient doses to kill O. sativa M2 Volano check plants. […] Plants were assessed for crop injury, using a scale from 0% injury to 100% injury, at 11 and 21 days after treatment (DAT) for M3 plants applied with 6-(1-fluorocyclopentyl)-N2-(2,3,5,6-tetrafluorophenyl)-1,3,5-triazine-2,4-diamine and 36 DAT for M4 plants applied with 6-cyclopentyl-N4-(2,3,4,5,6-pentafluorophenyl)-1,3,5-triazine-2,4-diamine. Plants without any symptoms were recorded as “0%” injury. Increasing levels of reduced leaf mass and reduced stalk stiffness, with respect to the untreated control plants, were recorded in the range of “1 to 49%” injury. Increasing levels of leaf abnormalities and leaf necrosis, along with increased levels of lodging, relative to the untreated control plants, were recorded in the range of “50 to 85%” injury. Dead or dying plants with necrosis of the apex and severe lodging were recorded between “86-100%”. Data on individual plants was assessed and recorded due to the low number of individuals per line and the fact that the CESA mutations in the M2 generation were heterozygous and therefore segregating at the M3 and M4 generations. […]
# [3] = test system: Rice M4 CESA1 and CESA3 mutants; experiment: Greenhouse foliar application, crop injury on tilled Rice M4 generation cellulose synthase mutants (Table E10-2)
# Description: as §1, §2
# [4] = Rice M4 OsCesA1 S827N (SEQ ID 51), parental plant Hom, 250 g ai/ha
# [5] = Rice M4 OsCesA1 T952I (SEQ ID 51), parental plant Het, 500 g ai/ha
smiles,measurement,setting,value
"Nc1nc(Nc2c(F)c(F)cc(F)c2F)nc(C2(F)CCCC2)n1 [6-(1-fluorocyclopentyl)-N2-(2,3,5,6-tetrafluorophenyl)-1,3,5-triazine-2,4-diamine]",rate sufficient to kill O. sativa M2 Volano check plants,[1],250 g ai/ha
same,Crop Injury Assessment (%) at 20 DAT,"[2]; foliar application 250 g ai/ha, 20 DAT",100%
"Nc1nc(Nc2c(F)c(F)c(F)c(F)c2F)nc(C2CCCC2)n1 [6-cyclopentyl-N4-(2,3,4,5,6-pentafluorophenyl)-1,3,5-triazine-2,4-diamine]",rate sufficient to kill O. sativa M2 Volano check plants,[1],250 g ai/ha
same,Crop injury assessment (%) at 23 DAT,[3]; [4],0%
same,Crop injury assessment (%) at 36 DAT,[3]; [4],0%
same,Crop injury assessment (%) at 23 DAT,"[3]; Rice M4 OsCesA1 T952I (SEQ ID 51), parental plant Het, 250 g ai/ha",0%
same,Crop injury assessment (%) at 23 DAT,[3]; [5],10%
same,Crop injury assessment (%) at 36 DAT,[3]; [5],10%
same,Crop injury assessment (%) at 23 DAT,[2]; foliar application 250 g ai/ha,75% and 65%
same,Crop injury assessment (%) at 36 DAT,[2]; foliar application 250 g ai/ha,70% and 95%
same,Crop injury assessment (%) at 23 DAT,[2]; foliar application 500 g ai/ha,98% and 95%
same,Crop injury assessment (%) at 36 DAT,[2]; foliar application 500 g ai/ha,100%

# Source: patent US12018267B2, “Plants having increased tolerance to herbicides” (BASF SE, priority 2015, dated 2024)
